Test results published in patent publication US11578074B2, “Nitrogenous heterocyclic compound, preparation method, intermediate, composition, and application” (SHANGHAI PHARMACEUTICALS HOLDING CO., LTD., priority 2017, dated 2023).

Legend:
[1] = In vivo pharmacokinetics study in cynomolgus monkeys; settings: male, cynomolgus monkey, in vivo, po, 15 mg/kg
Procedure: 6 male cynomolgus monkeys (purchased from Guangxi Guidong Primate Development Experiment Co., Ltd., certificate No. SCXK (Guangxi) 2013-0057) were divided into 2 groups with 3 in each group, and all of the animals were fasted for about 12 hours before administration. One group was orally administrated with 15 mg/kg of the final product of Embodiment 22 (deionized water was added, followed by sonication for 30 minutes and stirring for 3 minutes, and a clear pale yellow dosing solution with a concentration of 3 mg/mL was prepared); one group was administrated with 15 mg/kg of Pyrotinib (deionized water was added, followed by sonication for 30 minutes and stirring for 4 minutes, and a clear yellow dosing solution with a concentration of 3 mg/mL was prepared). Blood samples were collected before administration and at 15, 30, 60, 90, 120, 150, 180, 240, 360, 480, 720 and 1440 minutes respectively after administration.
1.0 mL of blood was collected from each animal through jugular vein puncture at each time point and heparin sodium was used for anticoagulation. The blood samples were collected and placed in labeled centrifuge tubes, and plasma was centrifuged (centrifugation conditions: 3500 rpm, 10 minutes, 2-8° C.). To 50 μL of plasma sample was added 300 μL of acetonitrile containing internal standard (Propranolol, 25 ng/mL) to precipitate the protain. After vortexing for 10 minutes and centrifuging at 6000 g for 20 minutes, 100 μL of supernatant was taken and injected into a 96-well plate. The drug concentration in plasma was determined by UPLC/MS-MS.

[2] = system: HER2 overexpressing human gastric cancer NCI-N87 nude mice xenograft; test: HER2 overexpressing human gastric cancer NCI-N87 nude mice xenograft model; assay type: in vivo; settings: continuous oral administration for 21 days
Source text: We have established nude mice xenograft model for HER2 overexpression.

[3] = In vivo pharmacokinetic study in rats; settings: male, SD, rat, plasma, oral, 3 mg/kg intravenous, 6 mg/kg intragastric
Procedure: Five male SD rats, weighing 180-220 g (provided by Shanghai Xipuerbikai Experimental Animal Co., Ltd, certificate No. 20130016005408). The rats were fasted for feed but not water for 12-16 hours before the experiment. Two rats were intravenously injected with 3 mg/kg (which was dissolved by the ratio 0.9% physiological saline:PEG 400=7:3, to give a clear solution with a concentration of 1 mg/mL and a dosage volume of 3 mL/kg) of the final product of Embodiment 45. Blood samples were collected before administration and at 2, 5, 15, 30, 60, 90, 120, 240, 360, 480, 600 and 1440 minutes after administration respectively; three rats were intragastricly administrated with 6 mg/kg (0.5% CMC-Na was added and grounded into a uniform suspension with a concentration of 0.75 mg/mL and a dosage volume of 8 mL/kg) of the final product of Embodiment 45. Blood samples were collected before administration and at 5, 15, 30, 60, 90, 120, 240, 360, 480, 600 and 1440 minutes after administration respectively.
0.4 mL of blood was taken from fundus venous plexus of mice and rats into a heparinized centrifuge tube (10 μL heparin sodium solution/tube). […] After vortexing for 10 minutes and centrifuging at 6000 g and 4° C. for 10 minutes, the supernatant was diluted with mobile phase in a 96-well plate, and the drug concentration in plasma was determined by UPLC/MS-MS.

Row | Compound | AUC [1] [µg·h/mL] | oral absorption peak concentration [1] [ng/mL] | tolerability ([2]; 5 mg/kg, 10 mg/kg and 20 mg/kg) | tumor volume inhibition rate (GI %) ([2]; 5 mg/kg) [%] | tumor volume inhibition rate (GI %) ([2]; 10 mg/kg) [%] | tumor volume inhibition rate (GI %) ([2]; 20 mg/kg) [%] | bioavailability [3] [%]
1 | CCOc1cc2ncnc(Nc3ccc(Oc4ccn5ncnc5c4)c(C)c3)c2cc1NC(=O)/C=C/[C@H]1CCCN1C [Final product of Embodiment 22, (R,E)-N-(4-((4-([1,2,4]triazolo[1,5-a]pyridin-7-yloxy)-3-methylphenyl)amino)-7-ethoxyquinazolin-6-yl)-3-(1-methylpyrrolidin-2-yl)acrylamide] | 5.58 | 506.5 | tolerant | 51.5 | 130.1 | 146.2 | –
2 | CCOc1cc2ncnc(Nc3ccc(Oc4ccn5ncnc5c4)c(C)c3)c2cc1NC(=O)/C(F)=C/[C@H]1CCCN1C [Final product of Embodiment 45] | – | – | – | – | – | – | 71.3
